# Experiments:
# [1] = In vitro fluorescence activation of DFHBI-1T by 29-1 and truncation mutants; format: biochemical; conditions: excess RNA conditions
# Description: In Vitro Characterization of Aptamers: dsDNA from the brightest bacterial cells in a library was PCR amplified from eluted plasmids. Truncation, deletion and point mutation mutants were generated from dsDNAs PCR amplified based on respective ssDNA templates (Protein and Nucleic Acid Facility, Stanford University Medical Center). Primers were designed so the PCR product contained T7 promoter sequence. When indicated, dsDNA or ssDNA also contained tRNA scaffold part. PCR products were then purified with PCR purification columns (Qiagen) and in vitro transcribed utilizing AmpliScribe T7-Flash Transcription Kit (Epicenter). RNA was purified using Bio-Spin columns (Bio-Rad), and quantified using both absorbance values and the Quant-iT RiboGreen RNA Assay Kit (Life Technologies).
# All in vitro RNA properties were measured in 40 mM HEPES pH 7.4, 100 mM KCl, 1 mM MgCl2 buffer unless specified separately. All values presented are averaging of at least three independent experiments, error bars are standard deviations.
# (§1) To measure the fluorescence of aptamer-fluorophore complexes, an approach that overcomes potential confounding effects of incomplete RNA folding was used. The fluorescence of RNA-fluorophore complexes can be measured in either of two ways: using “excess RNA” or “excess fluorophore” (Ponchon et al., “Recombinant RNA Technology: the tRNA Scaffold,” Nat. Methods 4(7): 571-6 (2007), which is hereby incorporated by reference in its entirety). In an “excess RNA” experiment enough RNA was added to ensure that all the fluorophore (e.g. 1 μM) is bound to the RNA even if a sizeable portion of the RNA is unfolded. As a result, one can be confident that a 1 μM RNA-fluorophore complex is present, and one can therefore calculate the “molar brightness,” the fluorescence of a specific concentration of RNA-fluorophore complex independent of RNA folding. In the case of excess fluorophore experimental conditions were reversed and 1 μM of RNA was used with a vast excess of the fluorophore. In this case, the amount of RNA-fluorophore complex is highly dependent on the amount of RNA that is folded.
# E. coli = experiment: Fluorescence measurements of E. coli (colonies, suspensions) expressing aptamers with DFHBI-1T; format: cell-based, Escherichia coli
# Experimental: Fluorescence Measurements of E. coli: Fluorescence measurements of E. coli were done in two general ways. To assess fluorescence brightness of bacterial colonies on a plate Acella or LMG194 strains cells were transferred to a new LB/agar dish with respective antibiotic and allowed to grow overnight at 37° C. Typically four to six colonies for the same aptamer were grown on the same plate to provide statistical data. These plates already contained 40 μM DFHBI-1T (or DFHBI) and 0.2% arabinose (in case of LMG194 strain). When Acella strain was used, 1 mM IPTG was added the next morning and incubation was continued for four to six hours more at 37° C. Bacterial colonies were then imaged under ChemiDoc MP imager as described above and images were processed in ImageJ program.
# To measure fluorescence of bacterial cell suspensions BL21 Star (DE3) (Life Technologies) strain and pET28c-based expression plasmids were used. This combination provided the strongest signal. Fresh colony was inoculated into LB media with kanamycin and allowed to grow overnight at 37° C. to OD600 0.4. The cells were then induced with addition of 1 mM IPTG for 2-4 h at 37° C. After induction, cells were normalized for cell density and incubated with 400 μM DFHBI-1T. Cells were then measured for total fluorescence using a Genios Pro plate reader at 465 nm excitation and 535 nm emission. All values were normalized for slightly different excitation and emission spectra of Spinach2 and Broccoli.
# [2] = Folding measurements with DFHBI-1T; format: physicochemical; conditions: for percent folded: in vitro folding assay
# Experimental: Briefly, fluorescence intensity of two solutions were compared: the one having excess of the dye and limiting amount of RNA and the other with excess of RNA and limiting amount of the dye. 1 μM of 1T (or RNA) and 20 μM of RNA (or 1T) was used. Signal from the first condition (limiting RNA) was divided by the signal from the second condition (limiting dye) to determine the fraction folded. To measure folding in a context of different flanking sequences RNA was generated from separate dsDNA fragments. These fragments were PCR amplified to have β-actin, 5S rRNA and 7SK RNA sequences on either or both sides of Broccoli. The folding assay then proceeded as described above.
# as §1
# HEK293T cells = experiment: Flow cytometry of HEK293T cells expressing 5S rRNA-aptamer fusions with DFHBI-1T; format: cell-based; conditions: flow cytometry
# Experimental: FIG. 24 illustrates the quantification of the flow cytometry analysis of aptamers expression in mammalian cells. To compare specific aptamers' brightness in mammalian cells, HEK293T cells were transfected with two plasmids: one expressing aptamer (with or without tRNA) fused to 5S rRNA and another expressing mCherry fluorescent protein. Cells were then treated with 40 μM DFHBI-1T and analyzed on FACSAria III instrument in two channels: green (ex=488 nm; em=525±50 nm) and red (ex=561 nm and em=610±20). For quantification, mean fluorescent signal of the non-negative population was calculated and then mean fluorescent signal of the negative population was subtracted from it to assess specific, not background fluorescent signal. Finally, this number was multiplied by the percentage of the non-negative population to provide the total fluorescent signal of the non-negative population. These numbers are plotted on the bar graph above. Where indicated, cells were also pre-treated with 5 mM MgSO4. Error bar indicates robust SD calculated by FlowJo program, used for data analysis.
# Imaging 5S-tBroccoli and 5S-t-tdBroccoli: Plasmids were transfected into HEK293T cell using FuGENE HD reagent (Promega) following manufacture's protocol. Cell imaging was carried out as previously described for 5S-Spinach (Paige et al., “RNA Mimics of Green Fluorescent Protein,” Science 333(6042): 642-6 (2011), which is hereby incorporated by reference in its entirety) with DFHBI-1T instead of DFHBI. […]
# Flow cytometry was used to quantify average brightness of tRNA. Transfected cells were analyzed in two channels: green (ex=488 nm; em=525±50 nm) and red (ex=561 nm; em=610±20). […] As evidenced from FIG. 14A, 5S-tBroccoli and 5S-tdBroccoli are clearly detectable in the green fluorescence channel and this specific signal appears only upon cells treatment with DFHBI-1T (FIG. 23).
# [3] = Magnesium dependence of aptamer fluorescence; format: physicochemical; conditions: MgCl2 titration
# Experimental: To measure magnesium dependence 1 μM RNA was incubated with 10 μM 1T in 40 mM HEPES pH 7.4, 100 mM KCl buffer with different concentrations of MgCl2 and then fluorescence emission was measured on a plate reader.
Molecule,ability to induce DFHBI-1T fluorescence [1],ability to induce DFHBI-1T fluorescence ([1]; listed as T2),"colony fluorescence compared to 29-1 (E. coli; E. coli colonies on LB-DFHBI-1T agar, tRNA scaffold)",percent folded [2] [%],detection in HEK293T cells of 5S fusions without tRNA scaffold (HEK293T cells),"fluorescence of aptamer-expressing E. coli cells (E. coli; tRNA fusions, suspension/plate reader, DFHBI-1T)",folding relative to 29-1 ([2]; in vitro) [%],magnesium concentration giving maximal fluorescence [3] [µM],"increase of E. coli fluorescence with 20 mM MgCl2 (E. coli; LB media with versus without 20 mM MgCl2, after 1 hr) [%]"
"29-1-T2: 56-nucleotide truncation of 29-1, SEQ ID NO: 4 (GAGACGGUCGGGUCCAGCACAAAAAUGUUGCUGUUGAGUAGAGUGUGGGCUC; listed as RNA, chemistry not given here)",retained the ability to induce DFHBI-1T fluorescence,able to induce fluorescence of DFHBI-1T,significantly less bright than colonies expressing 29-1,45,,,,,
"Broccoli: 49 nt RNA aptamer, SEQ ID NO: 75; 29-1-3-1 designated Broccoli (GAGACGGUCGGGUCCAGAUAUUCGUAUCUGUCGAGUAGAGUGUGGGCUC; further chemistry not given here)",,,,,can be detected in cells,more than twice as fluorescent as Spinach2-expressing cells,80,~300,
"tBroccoli: Broccoli with tRNA scaffold, SEQ ID NO: 38 (nucleic acid, chemistry not given here) GCCCGGATAGCTCAGTCGGTAGAGCAGCGGAGACGGTCGGGTCCAGATATTCGTATCTGTCGAGTAGAGTGTGGGCTCCGCGGGTCCAGGGTTCAAGTCCCTGTTCGGGCGCCA",,,,~60,,,,,36
